In ChEMBL document CHEMBL3044717, “Synthesis and QSAR modeling 1-[3-methyl-2-(aryldiazenyl)-2H-aziren-2-yl]ethanones as potential antibacterial agents” (2013):

Assays:
Type in all cases: functional
Escherichia coli = test: Antibacterial activity against Escherichia coli ATCC 13607 assessed as growth inhibition after 16-24 hr by two-fold serial dilution method
Bacillus subtilis = test: Antibacterial activity against Bacillus subtilis ATCC 6633 assessed as growth inhibition after 16-24 hr by two-fold serial dilution method
Staphylococcus aureus = test: Antibacterial activity against Staphylococcus aureus ATCC 2943 assessed as growth inhibition after 16-24 hr by two-fold serial dilution method
Brevundimonas diminuta = test: Antibacterial activity against Brevundimonas diminuta MTCC 3361 assessed as growth inhibition after 16-24 hr by two-fold serial dilution method

## CC(=O)C1(/N=N/c2ccc([N+](=O)[O-])cc2)N=C1C (configuration not stated)
Escherichia coli
  -logMIC: 4.253
Bacillus subtilis
  -logMIC: 4.221
Staphylococcus aureus
  -logMIC: 4.492
Brevundimonas diminuta
  -logMIC: 4.287

## CC(=O)C1(/N=N/c2ccccc2)N=C1C (configuration not stated)
Bacillus subtilis
  -logMIC: 4.026
Staphylococcus aureus
  -logMIC: 4.032
Brevundimonas diminuta
  -logMIC: 4.024

## CC(=O)C1(/N=N/c2ccccc2Cl)N=C1C (configuration not stated)
Bacillus subtilis
  -logMIC: 4.348
Staphylococcus aureus
  -logMIC: 4.317
Brevundimonas diminuta
  -logMIC: 4.354

## CC(=O)C1(/N=N/c2cccc(Cl)c2)N=C1C (configuration not stated)
Bacillus subtilis
  -logMIC: 4.315
Staphylococcus aureus
  -logMIC: 4.324
Brevundimonas diminuta
  -logMIC: 4.325

## CC(=O)C1(/N=N/c2ccc(Cl)cc2)N=C1C (configuration not stated)
Bacillus subtilis
  -logMIC: 4.078
Staphylococcus aureus
  -logMIC: 4.014
Brevundimonas diminuta
  -logMIC: 4.096

## COc1ccccc1/N=N/C1(C(C)=O)N=C1C (configuration not stated)
Bacillus subtilis
  -logMIC: 4.056
Staphylococcus aureus
  -logMIC: 4.119
Brevundimonas diminuta
  -logMIC: 4.072

## COc1cccc(/N=N/C2(C(C)=O)N=C2C)c1 (configuration not stated)
Bacillus subtilis
  -logMIC: 4.366
Staphylococcus aureus
  -logMIC: 4.328
Brevundimonas diminuta
  -logMIC: 4.377

## CC(=O)C1(/N=N/c2ccccc2C)N=C1C (configuration not stated)
Escherichia coli
  -logMIC: 4.378
Bacillus subtilis
  -logMIC: 4.378
Staphylococcus aureus
  -logMIC: 4.339

## CC(=O)C1(/N=N/c2cccc(C)c2)N=C1C (configuration not stated)
Bacillus subtilis
  -logMIC: 4.213
Staphylococcus aureus
  -logMIC: 4.298

## CC(=O)C1(/N=N/c2ccc(C)cc2)N=C1C (configuration not stated)
Bacillus subtilis
  -logMIC: 4.298
Staphylococcus aureus
  -logMIC: 4.178

## CC(=O)C1(/N=N/c2cccc(Br)c2)N=C1C (configuration not stated)
Escherichia coli
  -logMIC: 4.441
Bacillus subtilis
  -logMIC: 4.425
Staphylococcus aureus
  -logMIC: 4.457

## CC(=O)C1(/N=N/c2ccc(Br)cc2)N=C1C (configuration not stated)
Escherichia coli
  -logMIC: 4.414
Bacillus subtilis
  -logMIC: 4.401
Staphylococcus aureus
  -logMIC: 4.433

## CC(=O)C1(/N=N/c2cccc(C(=O)O)c2)N=C1C (configuration not stated)
Escherichia coli
  -logMIC: 4.223
Bacillus subtilis
  -logMIC: 4.446
Staphylococcus aureus
  -logMIC: 4.178
Brevundimonas diminuta
  -logMIC: 4.138

## CC(=O)C1(/N=N/c2ccc(C(=O)O)cc2)N=C1C (configuration not stated)
Escherichia coli
  -logMIC: 4.341
Bacillus subtilis
  -logMIC: 4.376
Staphylococcus aureus
  -logMIC: 4.358
Brevundimonas diminuta
  -logMIC: 4.243

## CC(=O)C1(/N=N/c2cccc([N+](=O)[O-])c2)N=C1C (configuration not stated)
Escherichia coli
  -logMIC: 4.257
Bacillus subtilis
  -logMIC: 4.245
Staphylococcus aureus
  -logMIC: 4.421
Brevundimonas diminuta
  -logMIC: 4.336
